Experimental findings from ChEMBL document CHEMBL1201862, “PubChem BioAssay data set” (2004) are described below.

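Values below derive from 48-hour exposures of cells grown in 96-well plates, with endpoints linearly interpolated between the two concentrations bracketing the appropriate inhibition level. The concentration for 50% growth inhibition is given as GI50.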 Activity calls are given as the source filed them. Rule as the data show it: active = GI50 up to about 1.1 µM and inactive = higher.

Some test systems named below: SK-MEL-28; SF-268; LOX IMVI; HCT-15; M14; Malme-3M; UO-31; NCI-H460; K562; IGROV-1; HOP-62; A549; ACHN; COLO 205; NCI-H226; UACC-257; MDA-MB-231; MDA-MB-435; T47D; BT-549.
Common to all, as to assay: inhibition of tumour cell growth, NCI panel, 48 h

Take `O=C(CCc1nnc2s/c(=C\c3ccc(Cl)cc3Cl)c(=O)n12)Nc1cc(Cl)c(Cl)cc1Cl`: the GI50 in the assay with SK-MEL-28 is > 10 µM (inactive); in the assay with SF-268, > 10 µM (inactive); with LOX IMVI it was > 10 µM (inactive); in the assay on HCT-15, more than 10 µM; in the assay on M14, > 10 µM (inactive); with Malme-3M it was > 10 µM (inactive). The GI50 with UO-31, in the assay on NCI-H460, in the assay with K562, in the assay with IGROV-1, in the assay with HOP-62 and in the assay with A549 was > 10 µM (inactive) each time. Besides, the GI50 with ACHN, in the assay with COLO 205, in the assay on NCI-H226 and with UACC-257 was > 10 µM (inactive) throughout.
Regarding `CNC1c2ccccc2C(=O)c2cc3c(cc21)OCCOCCOCCOCCO3` (stereo not drawn), the GI50 in the assay on SK-MEL-28 is > 100 µM (inactive); in the assay on SF-268, > 100 µM (inactive); with HCT-15, 39.9 µM; in the assay on M14 it was > 100 µM (inactive); in the assay on UO-31 it was > 100 µM (inactive); in the assay with NCI-H460, > 100 µM (inactive). Besides, the GI50 in the assay with MDA-MB-231 was 82.2 µM (inactive); in the assay with MDA-MB-435, > 100 µM (inactive); with T47D it was > 100 µM (inactive); with K562, 45.1 µM (inactive); in the assay with IGROV-1 it was > 100 µM (inactive); in the assay with HOP-62, > 100 µM (inactive). Further, the GI50 in the assay on A549, in the assay on ACHN, in the assay with COLO 205 and in the assay on UACC-257 was > 100 µM (inactive) in each case.
As for `CCn1c2ccccc2c2c(-c3ccccc3)cc3c(c21)C(=O)N(c1ccccc1)C3=O`, the GI50 in the assay with SK-MEL-28 was > 100 µM (inactive); in the assay on SF-268, 76.6 µM (inactive); in the assay with LOX IMVI, > 100 µM (inactive); in the assay on HCT-15 it was more than 100 µM; in the assay on M14 it was > 100 µM (inactive); in the assay on Malme-3M, > 100 µM (inactive). Further, the GI50 with UO-31 was > 100 µM (inactive); in the assay on NCI-H460, 36.6 µM (inactive); in the assay on K562 it was > 100 µM (inactive); in the assay on IGROV-1, > 100 µM (inactive); in the assay on HOP-62 it was > 10 µM (inactive); in the assay with A549, > 100 µM (inactive). The GI50 is 99.8 µM (inactive) in the assay on ACHN, > 100 µM (inactive) in the assay on COLO 205, > 100 µM (inactive) in the assay on NCI-H226 and > 100 µM (inactive) with UACC-257.
Consider `Cc1c(CC/C(=N\Nc2ccc([N+](=O)[O-])cc2[N+](=O)[O-])c2ccccc2)c2ccccc2n1C`, for which the GI50 is > 100 µM (inactive) in the assay with SK-MEL-28; > 100 µM (inactive) in the assay with SF-268; > 100 µM (inactive) in the assay on LOX IMVI; more than 100 µM with HCT-15; > 100 µM (inactive) in the assay with M14; > 100 µM (inactive) in the assay with Malme-3M. In addition, the GI50 in the assay on UO-31 was > 86.9 µM (inactive); with NCI-H460, > 100 µM (inactive); in the assay with K562 it was 27.4 µM (inactive); in the assay with IGROV-1, > 100 µM (inactive); in the assay on HOP-62, > 100 µM (inactive); with A549 it was > 100 µM (inactive). Moreover, the GI50 in the assay on ACHN, in the assay with COLO 205, in the assay with NCI-H226 and with UACC-257 was > 100 µM (inactive) each time.
Regarding `O=C1Nc2ccccc2Cn2c1cc1oc(-c3ccccc3)cc12`, the GI50 in the assay on SK-MEL-28 was 63.5 µM (inactive); in the assay with SF-268, 24 µM (inactive); in the assay on LOX IMVI, > 100 µM (inactive); in the assay on HCT-15 it was 88.9 µM; in the assay with Malme-3M, 30.3 µM (inactive); with NCI-H460, 61.7 µM (inactive). Further, the GI50 in the assay with MDA-MB-231 was 32.5 µM (inactive); with MDA-MB-435, > 100 µM (inactive); in the assay on T47D, 23.8 µM (inactive); in the assay on K562, 50.2 µM (inactive); with IGROV-1 it was 29.8 µM (inactive); with HOP-62, 21.6 µM (inactive). The GI50 is 32.4 µM (inactive) in the assay on A549, 37.2 µM (inactive) in the assay with ACHN, > 100 µM (inactive) with COLO 205 and > 100 µM (inactive) with UACC-257.
With `Cc1cc(Br)ccc1NC1=CC(=O)C(=O)c2ccccc21`, the GI50 with SK-MEL-28 was 45.3 µM (inactive); in the assay with SF-268 it was 47.4 µM (inactive); in the assay with LOX IMVI, 21.4 µM (inactive); in the assay with HCT-15 it was 55.2 µM; in the assay with M14 it was 52.1 µM (inactive); with Malme-3M, 24.3 µM (inactive). In addition, the GI50 in the assay on UO-31 is 94.6 µM (inactive); in the assay on NCI-H460, 27.9 µM (inactive); with K562 it was 51.4 µM (inactive); in the assay with IGROV-1 it was 77.6 µM (inactive); in the assay with HOP-62, > 100 µM (inactive); in the assay on A549, 39.1 µM (inactive). Further, the GI50 in the assay on ACHN is 36.4 µM (inactive); with COLO 205, 31.6 µM (inactive); in the assay with NCI-H226, 39.8 µM (inactive); in the assay with UACC-257 it was 15.9 µM (inactive).
`O=C(NCCN1CCCCC1)c1cccc(I)c1`: the GI50 with SK-MEL-28 is > 100 µM (inactive); with SF-268 it was > 100 µM (inactive); in the assay on LOX IMVI, > 100 µM (inactive); in the assay on HCT-15, more than 100 µM; in the assay on M14 it was 72.9 µM (inactive); with UO-31, > 100 µM (inactive). The GI50 in the assay on NCI-H460, in the assay with BT-549, in the assay with K562, with IGROV-1, in the assay with A549 and in the assay with ACHN was > 100 µM (inactive) in each case. Besides, the GI50 with NCI-H226 was > 100 µM (inactive).
Take `CC(=O)Nc1ccc(C2[C@H]3C(=O)N(c4ccc(Cc5ccc(N6C(=O)[C@@H]7ON(c8ccccc8)C(c8ccc(NC(C)=O)cc8)[C@@H]7C6=O)cc5)cc4)C(=O)[C@H]3ON2c2ccccc2)cc1` (stereo partly drawn): the GI50 was > 100 µM (inactive) in the assay with SK-MEL-28; > 100 µM (inactive) in the assay with SF-268; > 100 µM (inactive) in the assay with LOX IMVI; more than 100 µM in the assay with HCT-15; 25.2 µM (inactive) in the assay on M14; > 100 µM (inactive) in the assay on Malme-3M. Besides, the GI50 in the assay on UO-31, in the assay on NCI-H460, in the assay on K562, with IGROV-1, with HOP-62 and in the assay with A549 was > 100 µM (inactive) each time. For the same compound, the GI50 is > 100 µM (inactive) in the assay on ACHN, 74.6 µM (inactive) with COLO 205, > 100 µM (inactive) with NCI-H226 and > 100 µM (inactive) with UACC-257.
On to `CN1CCc2ccccc2C(C(=O)c2ccc3c(c2)OCO3)C1=O` (stereo not drawn), for which the GI50 in the assay on SK-MEL-28 is > 100 µM (inactive); with SF-268, > 100 µM (inactive); with LOX IMVI, > 100 µM (inactive); with HCT-15, more than 100 µM; in the assay with M14, > 100 µM (inactive); in the assay with Malme-3M, > 100 µM (inactive). The GI50 was 94 µM (inactive) in the assay on UO-31; > 100 µM (inactive) in the assay with NCI-H460; > 100 µM (inactive) in the assay on K562; > 100 µM (inactive) with IGROV-1; > 100 µM (inactive) in the assay on HOP-62; > 100 µM (inactive) with A549. The GI50 is > 100 µM (inactive) in the assay on ACHN, > 100 µM (inactive) in the assay on COLO 205, 99.5 µM (inactive) in the assay on NCI-H226 and 90.2 µM (inactive) in the assay on UACC-257.
Consider `Cn1c(=O)sc2cc(C(=S)N3CCCCC3)ccc21`, for which the GI50 in the assay on SK-MEL-28 is 56.4 µM (inactive); in the assay with SF-268 it was 25.6 µM (inactive); in the assay with LOX IMVI, 81.5 µM (inactive); with HCT-15, 93.8 µM; in the assay on M14 it was > 100 µM (inactive); with Malme-3M it was 0.865 µM (active). In addition, the GI50 in the assay with NCI-H460 is > 100 µM (inactive); with MDA-MB-231 it was 45.9 µM (inactive); with BT-549 it was 66.4 µM (inactive); in the assay with MDA-MB-435, > 100 µM (inactive); in the assay on K562 it was 47.9 µM (inactive); in the assay with IGROV-1 it was 23.2 µM (inactive). The GI50 is > 100 µM (inactive) in the assay with HOP-62; 96.2 µM (inactive) in the assay with ACHN; 57.9 µM (inactive) in the assay on COLO 205; 18.6 µM (inactive) with NCI-H226; > 100 µM (inactive) in the assay with UACC-257.
Consider `Cc1ccc(Cl)c2c1NC(=O)/C2=N\Nc1ccccc1[N+](=O)[O-]`, for which the GI50 was > 100 µM (inactive) with SK-MEL-28; 45.8 µM (inactive) in the assay on SF-268; 25.6 µM (inactive) with LOX IMVI; 37.8 µM in the assay on HCT-15; 42.6 µM (inactive) in the assay with M14; 42.7 µM (inactive) in the assay on Malme-3M. For the same compound, the GI50 with UO-31 was 34.8 µM (inactive); with NCI-H460, 30.4 µM (inactive); with MDA-MB-231, 75 µM (inactive); in the assay on MDA-MB-435, 15.7 µM (inactive); in the assay with T47D, 44.3 µM (inactive); in the assay on K562 it was 39.4 µM (inactive). Moreover, the GI50 in the assay with IGROV-1 is 6.53 µM (inactive); in the assay with HOP-62 it was 56.1 µM (inactive); in the assay with A549, 83 µM (inactive); in the assay with ACHN, 76.7 µM (inactive); in the assay on COLO 205, 46.3 µM (inactive); in the assay with NCI-H226, > 100 µM (inactive). In the assay on UACC-257, the GI50 was 82.2 µM (inactive).
Turning to `CCOC(=O)NNC(=O)NC12CC3CC(CC(C3)C1)C2`, the GI50 is > 100 µM (inactive) in the assay on SK-MEL-28; > 100 µM (inactive) in the assay with SF-268; > 100 µM (inactive) in the assay on LOX IMVI; more than 100 µM in the assay with HCT-15; > 100 µM (inactive) in the assay with M14; > 100 µM (inactive) in the assay on Malme-3M. For the same compound, the GI50 with UO-31, in the assay with NCI-H460, with K562, in the assay with IGROV-1, with HOP-62 and with A549 was > 100 µM (inactive) in each case. Moreover, the GI50 in the assay with ACHN, with COLO 205, in the assay with NCI-H226 and with UACC-257 was > 100 µM (inactive) each time.
